Like-named read-outs stand apart in the source and are kept apart here.
Tested on: HCV genotype-1a variant with glutamine 30 changed to glutamate in the NS5A protein
Format: cell-based
Method in brief: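 Synergy was assessed by combining several fixed amounts of an NS5A-targeting compound with a titration of the second compound of interest.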

[1] = test compound titrated with BMS-790052 fixed at 200 nM, genotype 1a Q30E replicon

CC(C)(C)[C@H](NC(=O)[C@@H]1C[C@@H]2[C@H](C1)C2(F)F)c1nc(-c2ccc(-c3ccc(-c4c[nH]c([C@@H](NC(=O)[C@@H]5C[C@@H]6[C@H](C5)C6(F)F)C(C)(C)C)n4)cc3)cc2)c[nH]1 [Compound Y-9]
Fold-Synergistic 1a (Q30E) [1]: >100 fold

CC(C)(C)[C@H](NC(=O)[C@H]1C[C@@H]2[C@H](C1)C2(F)F)c1nc(-c2ccc(-c3ccc(-c4c[nH]c([C@@H](NC(=O)[C@H]5C[C@@H]6[C@H](C5)C6(F)F)C(C)(C)C)n4)cc3)cc2)c[nH]1 [Compound Y-10]
Fold-Synergistic 1a (Q30E) [1]: >100 fold

CC(C)[C@H](NC(=O)C(C)(C)C)c1ncc(-c2ccc(-c3ccc(-c4cnc([C@@H](NC(=O)C(C)(C)C)C(C)C)[nH]4)c(OC(F)F)c3)cc2)[nH]1 [Compound Y-11]
Fold-Synergistic 1a (Q30E) [1]: >100 fold

CC(C)[C@H](NC(=O)C1(C)CCCCC1)c1ncc(-c2ccc(-c3ccc(-c4cnc([C@@H](NC(=O)C5(C)CCCCC5)C(C)C)[nH]4)c(OC(F)F)c3)cc2)[nH]1 [Compound Y-12]
Fold-Synergistic 1a (Q30E) [1]: >100 fold

COc1cc2ccccc2c(C(=O)N2CCC[C@H]2c2ncc(-c3ccc(-c4ccc(-c5cnc([C@@H](NC(=O)C(C)(C)C)C(C)C)[nH]5)cc4)cc3)[nH]2)n1 [Compound Y-13]
Fold-Synergistic 1a (Q30E): >100 fold

CC(C)CC(=O)N1CCC[C@H]1c1ncc(-c2ccc(-c3ccc(-c4cnc([C@@H](NC(=O)C(C)(C)C)C(C)C)[nH]4)cc3)cc2)[nH]1 [Compound Y-14]
Fold-Synergistic 1a (Q30E) [1]: >100 fold

CC(C)[C@H](NC(=O)c1ccccc1)c1ncc(-c2ccc(-c3ccc(-c4cnc([C@@H]5CCCN5C(=O)c5ccccc5)[nH]4)cc3)cc2)[nH]1 [Compound Y-15]
Fold-Synergistic 1a (Q30E) [1]: >10 fold

CC(C)CC(=O)N[C@H](c1ncc(-c2ccc(-c3ccc(-c4cnc([C@@H]5CCCN5C(=O)CC(C)C)[nH]4)cc3)cc2)[nH]1)C(C)C [Compound Y-16]
Fold-Synergistic 1a (Q30E) [1]: >10 fold

COC(=O)NC(C(=O)NC(c1nc(-c2ccc(-c3ccc(-c4cn(C)c(C(NC(=O)C(NC(=O)OC)C(C)C)C(C)C)n4)cc3)cc2)cn1C)C(C)C)C(C)C.O=C(O)C(F)(F)F.O=C(O)C(F)(F)F (centres unmarked) [Compound Y-17]
Fold-Synergistic 1a (Q30E) [1]: >10 fold

CC(C)CC(=O)NC(c1nc(-c2ccc(-c3ccc(-c4cn(C)c(C(NC(=O)CC(C)C)C(C)C)n4)cc3)cc2)cn1C)C(C)C.O=C(O)C(F)(F)F.O=C(O)C(F)(F)F (centres unmarked) [Compound Y-18]
Fold-Synergistic 1a (Q30E) [1]: <10 fold

COc1cc2ccccc2c(C(=O)N[C@H](c2ncc(-c3ccc(-c4ccc(-c5cnc([C@@H](NC(=O)c6nc(OC)cc7ccccc67)C(C)C)[nH]5)cc4)cc3)[nH]2)C(C)C)n1 [Compound Y-19]
Fold-Synergistic 1a (Q30E) [1]: >100 fold

CC(C)[C@H](NC(=O)c1ccc(C(F)(F)F)s1)c1ncc(-c2ccc(-c3ccc(-c4cnc([C@@H](NC(=O)c5ccc(C(F)(F)F)s5)C(C)C)[nH]4)cc3)cc2)[nH]1 [Compound Y-21]
Fold-Synergistic 1a (Q30E) [1]: >100 fold

CC(C)[C@H](NC(=O)c1cc(F)cc(F)c1)c1ncc(-c2ccc(-c3ccc(-c4cnc([C@@H](NC(=O)c5cc(F)cc(F)c5)C(C)C)[nH]4)cc3)cc2)[nH]1 [Compound Y-23]
Fold-Synergistic 1a (Q30E) [1]: >100 fold

CC(C)[C@H](NC(=O)c1cc(Cl)ccc1F)c1ncc(-c2ccc(-c3ccc(-c4cnc([C@@H](NC(=O)c5cc(Cl)ccc5F)C(C)C)[nH]4)cc3)cc2)[nH]1 [Compound Y-24]
Fold-Synergistic 1a (Q30E) [1]: >100 fold

CC(C)[C@H](NC(=O)C(C)(C)n1cccn1)c1ncc(-c2ccc(-c3ccc(-c4cnc([C@@H](NC(=O)C(C)(C)n5cccn5)C(C)C)[nH]4)cc3)cc2)[nH]1 [Compound Y-25]
Fold-Synergistic 1a (Q30E) [1]: >100 fold

CC(C)[C@H](NC(=O)C(C)(C)NC(=O)OC(C)(C)C)c1ncc(-c2ccc(-c3ccc(-c4cnc([C@@H](NC(=O)C(C)(C)NC(=O)OC(C)(C)C)C(C)C)[nH]4)cc3)cc2)[nH]1 [Compound Y-26]
Fold-Synergistic 1a (Q30E) [1]: >100 fold

CC(C)[C@H](NC(=O)c1sccc1F)c1ncc(-c2ccc(-c3ccc(-c4cnc([C@@H](NC(=O)c5sccc5F)C(C)C)[nH]4)cc3)cc2)[nH]1 [Compound Y-28]
Fold-Synergistic 1a (Q30E) [1]: >100 fold

CC(C)OC(C)(C)C(=O)N[C@H](c1ncc(-c2ccc(-c3ccc(-c4cnc([C@@H](NC(=O)C(C)(C)OC(C)C)C(C)C)[nH]4)cc3)cc2)[nH]1)C(C)C [Compound Y-29]
Fold-Synergistic 1a (Q30E) [1]: >100 fold

CC(C)[C@H](NC(=O)C1(F)CCCCC1)c1ncc(-c2ccc(-c3ccc(-c4cnc([C@@H](NC(=O)C5(F)CCCCC5)C(C)C)[nH]4)cc3)cc2)[nH]1 [Compound Y-30]
Fold-Synergistic 1a (Q30E) [1]: >100 fold

CC(C)[C@H](NC(=O)C(C)(C)OCC(F)(F)F)c1ncc(-c2ccc(-c3ccc(-c4cnc([C@@H](NC(=O)C(C)(C)OCC(F)(F)F)C(C)C)[nH]4)cc3)cc2)[nH]1 [Compound Y-31]
Fold-Synergistic 1a (Q30E) [1]: >100 fold

CC(C)[C@H](NC(=O)C(C)(C)OCCF)c1ncc(-c2ccc(-c3ccc(-c4cnc([C@@H](NC(=O)C(C)(C)OCCF)C(C)C)[nH]4)cc3)cc2)[nH]1 [Compound Y-32]
Fold-Synergistic 1a (Q30E) [1]: >100 fold

CC(C)[C@H](NC(=O)C(C)(C)Oc1ccccc1F)c1ncc(-c2ccc(-c3ccc(-c4cnc([C@@H](NC(=O)C(C)(C)Oc5ccccc5F)C(C)C)[nH]4)cc3)cc2)[nH]1 [Compound Y-33]
Fold-Synergistic 1a (Q30E) [1]: >100 fold

CC1([C@H](NC(=O)C2CCC(F)(F)CC2)c2ncc(-c3ccc(-c4ccc(-c5cnc([C@@H](NC(=O)C6CCC(F)(F)CC6)C6(C)CC6)[nH]5)cc4)cc3)[nH]2)CC1 [Compound Y-34]
Fold-Synergistic 1a (Q30E) [1]: >100 fold

CC(C)(C)C(=O)N[C@H](c1ncc(-c2ccc(-c3ccc(-c4cnc([C@@H](NC(=O)C(C)(C)C)C5(C)CC5)[nH]4)cc3)cc2)[nH]1)C1(C)CC1 [Compound Y-35]
Fold-Synergistic 1a (Q30E) [1]: >100 fold

CC(C)(F)C(=O)N[C@H](c1ncc(-c2ccc(-c3ccc(-c4cnc([C@@H](NC(=O)C(C)(C)F)C5(C)CC5)[nH]4)cc3)cc2)[nH]1)C1(C)CC1 [Compound Y-36]
Fold-Synergistic 1a (Q30E) [1]: >100 fold

CC1([C@H](NC(=O)C2CCC(F)(F)CC2)c2ncc(-c3ccc(-c4ccc(-c5cnc([C@@H](NC(=O)C6CCC(F)(F)CC6)C6(C)CCC6)[nH]5)cc4)cc3)[nH]2)CCC1 [Compound Y-38]
Fold-Synergistic 1a (Q30E) [1]: >100 fold

CC(C)(C)C(=O)N[C@H](c1ncc(-c2ccc(-c3ccc(-c4cnc([C@@H](NC(=O)C(C)(C)C)C5(C)CCC5)[nH]4)cc3)cc2)[nH]1)C1(C)CCC1 [Compound Y-39]
Fold-Synergistic 1a (Q30E) [1]: >100 fold

CC(C)[C@H](NC(=O)OC(C)(C)C)c1ncc(-c2ccc(-c3ccc(-c4cnc([C@@H](NC(=O)OC(C)(C)C)C(C)(C)C)[nH]4)cc3)cc2)[nH]1 [Compound Y-40]
Fold-Synergistic 1a (Q30E) [1]: >100 fold

CC(C)[C@H](NC(=O)C(C)(C)C)c1ncc(-c2ccc(-c3ccc(-c4cnc([C@@H](NC(=O)C(C)(C)C)C(C)(C)C)[nH]4)cc3)cc2)[nH]1 [Compound Y-41]
Fold-Synergistic 1a (Q30E) [1]: >100 fold
